Assay results reported in patent publication US9006228B2 (Merck Sharp & Dohme Corp., priority 2011, dated 2015).

What follows are compounds tested against T1, human GPR119 (Homo sapiens, UniProt Q8TDV5) (assay: Measurement of GPR119 signaling (cAMP assay; LANCE kit or HTRF) in HEK293 cells stably transfected with human GPR119). Details: agonist-stimulated cAMP in HEK293 cells expressing human GPR119.
T1 sequence (Q8TDV5 1-308 limits assumed): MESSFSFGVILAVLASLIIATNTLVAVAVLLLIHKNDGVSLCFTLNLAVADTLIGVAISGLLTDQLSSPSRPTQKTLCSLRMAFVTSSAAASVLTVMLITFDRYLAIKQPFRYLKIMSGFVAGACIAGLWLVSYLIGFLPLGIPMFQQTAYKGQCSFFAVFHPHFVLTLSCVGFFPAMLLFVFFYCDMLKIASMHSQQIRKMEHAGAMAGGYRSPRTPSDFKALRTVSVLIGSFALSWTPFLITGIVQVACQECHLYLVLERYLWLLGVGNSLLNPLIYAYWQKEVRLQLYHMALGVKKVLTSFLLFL
Type: cell-based
Method: Measurement of GPR119 Signaling Using LANCE 384-Well cAMP Kit
The adenylate cyclase assay was constructed following the LANCE™ cAMP Kit (Perkin Elmer, AD0264) instructions. […] The reaction was stopped by incubating with the supplied detection buffer containing the europium chelate of the Eu-SA/Biotin-cAMP tracer for 3 hours. The assay was performed in duplicate in a 384 well plate for duplicate plates. Fluorescence at 665 nm was measured using a PHERAstar instrument. Basal activity was determined using a DMSO control and maximum response was defined as cAMP stimulation produced by an internal agonist control. Standard cAMP concentrations were assayed concurrently for conversion of fluorescence signal to cAMP level. The data was analyzed using 4-parameter curve fit in Microsoft Excel.
Measurement of GPR119 Signaling Using a Cyclic AMP (cAMP) Homogenous Time Resolved Fluorescence (HTRF) Assay
Chinese hamster ovary (CHO) cell lines stably transfected with the permissive guanine nucleotide binding protein alpha 15 (Gα15) and murine GPR119 were maintained in DMEM media containing FBS, penicillin-streptomycin, puromycin, and G418 (geneticin). […] Agonist activation of the GPR119 receptor was measured in receptor transfected cells described above, treated with compounds of this invention, using a commercial homogenous time resolved fluorescence (HTRF) kit for measurement of cAMP (CisBio, Bedford, Mass.). The assay was performed in 96-well half-volume plates (murine) or 384-well plates (human) following the manufacturers instructions. Briefly, suspended cells were incubated with a dose titration of test compound at RT for 60 min, lysed, and incubated with HTRF reagents for an additional 60 min. The plate was read using an Envision multilabel reader (Perkin Elmer) adjusted to read time resolved fluorescence and the cAMP concentrations were extrapolated from a cAMP calibration curve. […] The concentration of test compound required to stimulate a half-maximal response (EC50), and efficacy as compared to an internal agonist control, was determined from a sigmoidal 4-parameter curve fit of the resulting plot of normalized activity versus compound concentration.

Row | SMILES | EC50 [nM]
1 | CS(=O)(=O)c1ccc(COC[C@@H]2C[C@@H]2C2CCN(C(=O)OC3CCC3)CC2)cc1 [Example 12, cyclobutyl 4-[(1R,2R)-2-({[4-(methylsulfonyl)benzyl]oxy}methyl)cyclopropyl]piperidine-1-carboxylate] | 8.2
2 | COCc1noc(N2CCC([C@H]3C[C@H]3COCc3ccc(-n4cnnn4)cc3F)CC2)n1 [Example 135, 5-(4-((1R,2R)-2-((2-fluoro-4-(1H-tetrazol-1-yl)benzyloxy)methyl)cyclopropyl)piperidin-1-yl)-3-(methoxymethyl)-1,2,4-oxadiazole] | 9.8
3 | CCc1cnc(N2CCC([C@H]3C[C@H]3COCc3ccc(-c4cnc(N)nc4)cc3F)CC2)nc1 [Example 103, 5-{4-[({(1R,2R)-2-[1-(5-ethylpyrimidin-2-yl)piperidin-4-yl]cyclopropyl}methoxy)methyl]-3-fluorophenyl}pyrimidin-2-amine] | 2.5
4 | CCc1cnc(N2CCC([C@H]3C[C@H]3COCc3ccc(-c4cnccn4)cc3)CC2)nc1 [Example 123] | 9.8
5 | O=S(=O)(CCO)c1ccc(COC[C@@H]2C[C@@H]2C2CCN(c3ncc(Cl)cn3)CC2)c(F)c1 [Example 80] | 2.3
6 | CC(C)(O)c1cnc(N2CCC([C@H]3C[C@H]3COCc3ccc(S(C)(=O)=O)cc3F)CC2)nc1 [Example 76] | 15
7 | CCc1cnc(N2CCC([C@H]3C[C@H]3COCc3ccc(S(=O)(=O)CCO)cn3)CC2)nc1 [Example 88, 2-({6-[({(1R,2R)-2-[1-(5-ethylpyrimidin-2-yl)piperidin-4-yl]cyclopropyl}methoxy)methyl]pyridin-3-yl}sulfonyl)ethanol] | 17
8 | CC(C)OC(=O)N1CCC([C@H]2C[C@H]2COCc2ccc(S(C)(=O)=O)cc2)CC1 [Example 9, isopropyl 4-[(1R,2R)-2-({[4-(methylsulfonyl)benzyl]oxy}methyl)cyclopropyl]piperidine-1-carboxylate] | 16
9 | COCc1cnc(N2CCC([C@H]3C[C@H]3COCc3cc(F)c(S(C)(=O)=O)c(F)c3)CC2)nc1 [Example 128, 2-(4-((1R,2R)-2-(((3,5-difluoro-4-(methylsulfonyl)benzyl)oxy)methyl)cyclopropyl)piperidin-1-yl)-5-(methoxymethyl)pyrimidine] | 4.5
10 | COCc1cnc(N2CCC([C@H]3C[C@H]3COCc3ccc(-n4cnnn4)c(F)c3)CC2)nc1 [Example 132, 2-(4-((1R,2R)-2-((3-fluoro-4-(1H-tetrazol-1-yl)benzyloxy)methyl)cyclopropyl)piperidin-1-yl)-5-(methoxymethyl)pyrimidine] | 1.1
11 | CCc1cnc(N2CCC([C@H]3C[C@H]3COCc3ccc(-c4cnc(C)s4)cc3F)CC2)nc1 [Example 111, 5-ethyl-2-{4-[(1R,2R)-2-({[2-fluoro-4-(2-methyl-1,3-thiazol-5-yl)benzyl]oxy}methyl)cyclopropyl]piperidin-1-yl}pyrimidine] | 4
12 | COc1cnc(N2CCC([C@H]3C[C@H]3COCc3ccc(S(C)(=O)=O)cn3)CC2)nc1 [Example 6, 5-methoxy-2-{4-[(1R,2R)-2-({[5-(methylsulfonyl)pyridin-2-yl]methoxy}methyl)cyclopropyl]piperidin-1-yl}pyrimidine] | 15
13 | CCc1cnc(N2CCC([C@H]3C[C@H]3COCc3ccc(C[C@@H](C)O)cc3)CC2)nc1 [Example 58, (2R)-1-{4-[({(1R,2R)-2-[1-(5-ethylpyrimidin-2-yl)piperidin-4-yl]cyclopropyl}methoxy)methyl]phenyl}propan-2-ol] | 11
14 | COCc1noc(N2CCC([C@H]3C[C@H]3COCc3ccc(CC(=O)N4CCC4)c(F)c3)CC2)n1 [Example 144, 1-(azetidin-1-yl)-2-(2-fluoro-4-((((1R,2R)-2-(1-(3-(methoxymethyl)-1,2,4-oxadiazol-5-yl)piperidin-4-yl)cyclopropyl)methoxy)methyl)phenyl)ethanone] | 11.4
15 | CCc1cnc(N2CCC([C@H]3C[C@H]3COCc3ccc(S(C)(=O)=O)cn3)CC2)nc1 [Example 3, 5-ethyl-2-{4-[(1R,2R)-2-({[5-(methylsulfonyl)pyridin-2-yl]methoxy}methyl)cyclopropyl]piperidin-1-yl}pyrimidine] | 1.5
16 | CS(=O)(=O)c1ccc(COC[C@@H]2C[C@@H]2C2CCN(c3ncc(F)cn3)CC2)cc1 [Example 16, 5-fluoro-2-{4-[(1R,2R)-2-({[4-(methylsulfonyl)benzyl]oxy}methyl)cyclopropyl]piperidin-1-yl}pyrimidine] | 5.8

Next, values leading:

Row | EC50 [nM] | SMILES
17 | 1.9 | CCc1cnc(N2CCC([C@H]3C[C@H]3COCc3ccc(-c4ccnnc4)cc3)CC2)nc1 [Example 121]
18 | 1.6 | CCc1cnc(N2CCC([C@H]3C[C@H]3COCc3ccc(C[C@H](C)O)cc3)CC2)nc1 [Example 59, (2S)-1-{4-[({(1R,2R)-2-[1-(5-ethylpyrimidin-2-yl)piperidin-4-yl]cyclopropyl}methoxy)methyl]phenyl}propan-2-ol]
19 | 2.3 | CCc1cnc(N2CCC([C@H]3C[C@H]3COCc3ccc(-c4cnccn4)cc3F)CC2)nc1 [Example 109, 2-{4-[({(1R,2R)-2-[1-(5-ethylpyrimidin-2-yl)piperidin-4-yl]cyclopropyl}methoxy)methyl]-3-fluorophenyl}pyrazine]
20 | 0.2 | CCc1cnc(N2CCC([C@H]3C[C@H]3COCc3ccc(S(C)(=O)=O)c(F)c3)CC2)nc1 [Example 40, 5-ethyl-2-{4-[(1R,2R)-2-({[3-fluoro-4-(methylsulfonyl)benzyl]oxy}methyl)cyclopropyl]piperidin-1-yl}pyrimidine]
21 | 2 | CCc1cnc(N2CCC([C@H]3C[C@H]3COCc3ccc(-c4nccnc4N)cc3F)CC2)nc1 [Example 107, 2-{4-[({(1R,2R)-2-[1-(5-ethylpyrimidin-2-yl)piperidin-4-yl]cyclopropyl}methoxy)methyl]-3-fluorophenyl}pyrazin-2-amine]
22 | 0.26 | CC(C)c1cnc(N2CCC([C@H]3C[C@H]3COCc3ccc(S(C)(=O)=O)cc3)CC2)nc1 [Example 23, 5-isopropyl-2-{4-[(1R,2R)-2-({[4-(methylsulfonyl)benzyl]oxy}methyl)cyclopropyl]piperidin-1-yl}pyrimidine]
23 | 0.92 | CC(C)c1noc(N2CCC([C@H]3C[C@H]3COCc3ccc(S(C)(=O)=O)cc3)CC2)n1 [Example 24, 1-(3-isopropyl-1,2,4-oxadiazol-5-yl)-4-[(1R,2R)-2-({[4-(methylsulfonyl)benzyl]oxy}methyl)cyclopropyl]piperidine]
24 | 2.4 | CC(C)(C)OC(=O)N1CCC([C@H]2C[C@H]2COCc2cc(F)c(C(=O)C3CC3)c(F)c2)CC1 [Example 52, tert-butyl 4-[(1R,2R)-2-({[4-(cyclopropylcarbonyl)-3,5-difluorobenzyl]oxy}methyl)cyclopropyl]piperidine-1-carboxylate]
25 | 0.13 | CC(C)Cc1cnc(N2CCC([C@H]3C[C@H]3COCc3ccc(S(C)(=O)=O)cc3)CC2)nc1 [Example 19, 5-isobutyl-2-{4-[(1R,2R)-2-({[4-(methylsulfonyl)benzyl]oxy}methyl)cyclopropyl]piperidin-1-yl}pyrimidine]
26 | 0.4 | COc1cnc(N2CCC([C@H]3C[C@H]3COCc3ccc(S(C)(=O)=O)cc3)CC2)nc1 [Example 15, 5-methoxy-2-{4-[(1R,2R)-2-({[4-(methylsulfonyl)benzyl]oxy}methyl)cyclopropyl]piperidin-1-yl}pyrimidine]
27 | 1 | O=C(c1c(F)cc(COC[C@@H]2C[C@@H]2C2CCN(c3ncc(Cl)cn3)CC2)cc1F)C1CC1 [Example 53]
28 | 0.89 | CC(C)c1noc(N2CCC([C@H]3C[C@H]3COCc3ccc(CC(=O)N4CC(F)C4)cc3F)CC2)n1 [Example 139, 2-(3-fluoro-4-((((1R,2R)-2-(1-(3-isopropyl-1,2,4-oxadiazol-5-yl)piperidin-4-yl)cyclopropyl)methoxy)methyl)phenyl)-1-(3-fluoroazetidin-1-yl)ethanone]
29 | 1.6 | COCc1cnc(N2CCC([C@H]3C[C@H]3COCc3ccc(S(C)(=O)=O)cc3F)CC2)nc1 [Example 77, 2-{4-[(1R,2R)-2-({[2-fluoro-4-(methylsulfonyl)benzyl]oxy}methyl)cyclopropyl]piperidin-1-yl}-5-(methoxymethyl)pyrimidine]
